# Experimental data taken from patent publication US6747063B2, “Combination therapy for treatment of erectile dysfunction” (Cellegy Pharmaceuticals, Inc., priority 1996, dated 2004).
# Several values for one entry are separate records, joined by “and”; a condition that tells them apart may be missing. Equal values may be shown once. No end group written: not given here.
# What was measured:
# [1] = test system: penile erection in patients with prior use of PGE1; assay: Erection in patients with clinical history of pain with prostaglandin therapy (case reports); assay type: in vivo, human; conditions: Case No. 2; 10 μg PGE1 at home
# Description: (§1) As detailed below, one of three different modes of administration of NO producing agents were used depending upon the patient. In particular, each of these individuals received a NO donor either through the use of a nitrospray such as Nitrolingual™ or a transdermal patch delivering a NO donor compound, and in three cases, a combination of PGE1 and 50 μg of SNP (in saline or phosphate buffered saline (PBS)).
# [2] = test system: penile pain in patients with previously diagnosed ED; assay: Patient-reported drug-related pain after intracavernous injection, patients with no prior PGE1; assay type: in vivo, human; conditions: Phase 2; IC PGE1 5 and 15 μg alone or with SNP 50 μg
# Description: Patients were fifted with the Rigiscan™ tumescence and rigidity recording device. The patients were injected with the intracavernous (IC) drug using up to 2 different doses (PGE1 alone or in combination with sodium nitroprusside (SNP50 μg)) and monitored in real-time for their erectile response. Patients were only given a second injection (higher dose PGE1) if the response to the first injection was less than 70% of maximum tumescence and rigidity. In addition, patients were asked to report any occurrence of pain specific to the injection, but not related to acute discomfort associated with the needle prick.
# [3] = test system: penile pain in patients using PGE1; conditions: cited from earlier work
# [4] = test system: penile pain in patients with prior use of PGE1; assay: Penile pain in patients with clinical history of pain with prostaglandin therapy (case reports); conditions: human, in vivo
# Description: as §1
# [5] = test system: penile erection in patients with previously diagnosed ED; assay: Erectile response (Rigiscan tumescence and rigidity) after intracavernous injection, patients with no prior PGE1; assay type: in vivo, human; conditions: Phase 1 (n=9)
# [6] = test system: human cavernous artery and cavernosal smooth muscle; conditions: cited from earlier work; for interaction of relaxant effects of the two agents: human cavernous artery and cavernosal smooth muscle; for relaxation response: isolated cavernous artery and corpus cavernosum
# [7] = in vivo; cited from earlier work
compound,measurement,setting,value
"CCCCC[C@H](O)/C=C/[C@H]1[C@H](O)CC(=O)[C@@H]1CCCCCCC(=O)O [PGE1, prostaglandin E1]",erectile response,[1],poor response
same,patients who experienced drug-related pain,[2],None
same,patients reporting a pain response,[3]; repeated / prolonged use of PGE1,40 to 45% and 40-45%
same,individuals with a pain response / frequency of pain per injection,[3]; single use of PGE1,3 to 10%
same,men reporting penile pain,"[3]; transurethral administration, clinic testing",35.7%
same,duration of pain,[4],three to four hours
same,patients with a poor response to both injections,"[5]; IC PGE1 5 μg at 1st visit, PGE1 5 μg+SNP 50 μg at 2nd visit",4 of 9
same,patients who experienced full tumescence,[5]; lowest dose of PGE1 alone (5 μg IC),2/9
"[NH-]c1c[n+](N2CCOCC2)no1 [SIN-1, 3-morpholinosydnonimine molsidomine]",interaction of relaxant effects of the two agents,[6],non-synergistic independent relaxant effects
same,relaxation response,[6],capacity to induce complete relaxations
O=[N+]([O-])OCC(CO[N+](=O)[O-])O[N+](=O)[O-] [glyceryl trinitrate],concentration in plasma,[7],0.2 to 0.4 ng/mL
"vasoactive intestinal peptide (HSDAVFTDNYTRLRKQMAVKKYLNSILN; ends and bridges not checked; UniProt P01282 125-152, looked up) [VIP]",interaction of relaxant effects of the two agents,[6],non-synergistic independent relaxant effects
same,relaxation response,[6],not capable of causing concentration dependent relaxation responses
